Laboratory results as given in US20210038587A1, “METHODS AND COMPOSITIONS FOR TREATING NON-ERK MAPK PATHWAY INHIBITOR-RESISTANT CANCERS” (BIOMED VALLEY DISCOVERIES, INC., priority 2013, published 2021).

What was measured:
[1] = tested on: A375, MIAPaCa-2, HCT116, Colo205, HT-29, and AN3Ca cells; assay: Reverse Phase Protein Analysis (RPPA), all six cell lines; type: cell-based; conditions: 10 μM, 6 hours
Procedure: (§1) Control wells were treated with DMSO at 0.1% (v/v) for 6 hours prior to cell lysate generation. Samples were then analyzed using reverse-phase protein microarray technology (Theranostics Health).
(§2) Cell lines with common alterations in BRAF and RAS were assayed: BRAF^V600E mutant lines A375, Colo205, and HT29; KRAS^G12C-mutant cell line MIAPACa-2; KRAS^G13D-mutant cell line HCT116; and AN3Ca with atypical HRAS^F82L mutation. Changes in protein levels are shown as a percentage change from dimethyl sulfoxide (DMSO)-treated parental control (FIG. 32A and Table 23).

A375 = assay: Reverse Phase Protein Analysis (RPPA); type: cell-based, human; conditions: % change from DMSO (matched cell line)
Procedure: as §1, §2

HCT116 = assay: Reverse Phase Protein Analysis (RPPA); type: cell-based, human; conditions: % change from DMSO (matched cell line)
Procedure: as §1, §2

AN3Ca = assay: Reverse Phase Protein Analysis (RPPA); type: cell-based; conditions: % change from DMSO (matched cell line)
Procedure: as §1, §2

HT29 = assay: Reverse Phase Protein Analysis (RPPA); type: cell-based; conditions: % change from DMSO (matched cell line)
Procedure: as §1, §2

## Cc1cnc(Nc2ccc(F)cc2Cl)nc1-c1c[nH]c(C(=O)N[C@H](CO)c2cccc(Cl)c2)c1 [Vx-11e]
[1]
  pERK1/2 (ERK1/2-T202, -Y204): markedly increased pERK1/2
A375
  Avg (4ebp1 T70): 23.33%
  Avg (Akt S473): 93.85%
  Avg (Akt): −30.34%
  Avg (Bad S136): 5.06%
  Avg (Bad S155): −6.3%
  Avg (Bak): 0.65%
  Avg (Bax): −5.05%
  Avg (Bcl 2): −9.93%
  Avg (Bcl2 S70): −4.02%
  Avg (Bcl 2 T56): −7.53%
  Avg (Bim): 12.32%
  Avg (CREB S133): −15.8%
  Avg (Caspase 3 CL D175): −9.27%
  Avg (Caspase 7 Cl D198): −7.62%
  Avg (Chk1): −0.86%
  Avg (Chk1 S345): 0.56%
  Avg (Cyclin D1): −85.46%
  Avg (ERK 1 2): −5.39%
  Avg (ERK 1 2 T202 Y204): 128.93%
  Avg (MAK1 S360): −7.63%
  Avg (Mcl1): 1.6%
  Avg (Raptor S792): −0.86%
  Avg (Raptor): −12.7%
  Avg (Rictor): −8.16%
  Avg (Stat1): 0.23%
  Avg (Stat3): 1.71%
  Avg (bad S112): −69.29%
  Avg (c Fos): −13.65%
  Avg (c Myc): −0.97%
  Avg (mTOR S2448): −21.66%
  Avg (mTOR S2481): −2.9%
  Avg (mTOR): −3.31%
  Avg (p70 S6 Kinase): −6.42%
  Avg (p90 RSK S380): −65.25%
  Avg(Tuberin TSC2 Y1571): −3.55%
  Avg(p70 S6 Kinase S371 S394): −17.32%
  Avg(p70 S6 Kinase T389 T412): −25.54%
HCT116
  Avg (4ebp1 T70): 10.35%
  Avg (Akt S473): −16.94%
  Avg (Akt): −18.15%
  Avg (Bad S136): −5.39%
  Avg (Bad S155): −15.59%
  Avg (Bak): −3.07%
  Avg (Bax): −20.46%
  Avg (Bcl 2): −17.3%
  Avg (Bcl2 S70): −17.79%
  Avg (Bcl 2 T56): −25%
  Avg (Bim): 4.82%
  Avg (CREB S133): −9.17%
  Avg (Caspase 3 CL D175): −5.19%
  Avg (Caspase 7 Cl D198): −11.41%
  Avg (Chk1): −8.63%
  Avg (Chk1 S345): −16.49%
  Avg (Cyclin D1): −72.72%
  Avg (ERK 1 2): −24.01%
  Avg (ERK 1 2 T202 Y204): 873.33%
  Avg (MAK1 S360): −13.73%
  Avg (Mcl1): −7.79%
  Avg (Raptor S792): −11.21%
  Avg (Raptor): −4.32%
  Avg (Rictor): 1.78%
  Avg (Stat1): −14.06%
  Avg (Stat3): −7.76%
  Avg (bad S112): −23.88%
  Avg (c Fos): −13.89%
  Avg (c Myc): −18.56%
  Avg (mTOR S2448): −10.12%
  Avg (mTOR S2481): −17.82%
  Avg (mTOR): −0.59%
  Avg (p70 S6 Kinase): −4.45%
  Avg (p90 RSK S380): −33.05%
  Avg(S6 Ribo Prot S235 236): −90.03%
  Avg(S6 Ribo Prot S240 244): −86.06%
  Avg(Tuberin TSC2 Y1571): −16.51%
  Avg(p70 S6 Kinase S371 S394): −9.89%
  Avg(p70 S6 Kinase T389 T412): −20.99%
AN3Ca
  Avg (4ebp1 T70): 16.67%
  Avg (Akt S473): 56.17%
  Avg (Akt): −24.62%
  Avg (Bad S136): −3.81%
  Avg (Bad S155): 4.59%
  Avg (Bak): −1.6%
  Avg (Bax): −7.89%
  Avg (Bcl 2): −18.77%
  Avg (Bcl2 S70): −14.39%
  Avg (Bcl 2 T56): −11.73%
  Avg (Bim): −1.46%
  Avg (CREB S133): 0.16%
  Avg (Caspase 3 CL D175): −12.7%
  Avg (Caspase 7 Cl D198): −8.09%
  Avg (Chk1): −0.46%
  Avg (Chk1 S345): −9.54%
  Avg (Cyclin D1): −9.59%
  Avg (ERK 1 2): −11.27%
  Avg (ERK 1 2 T202 Y204): 718.94%
  Avg (MAK1 S360): 6.83%
  Avg (Mcl1): −4.24%
  Avg (Raptor S792): 0.37%
  Avg (Raptor): −2.47%
  Avg (Rictor): 0.02%
  Avg (Stat1): −0.83%
  Avg (Stat3): −7.67%
  Avg (bad S112): −45.63%
  Avg (c Fos): −5.52%
  Avg (c Myc): −5.47%
  Avg (mTOR S2448): −2.37%
  Avg (mTOR S2481): 7.22%
  Avg (mTOR): −6.27%
  Avg (p70 S6 Kinase): −2.33%
  Avg (p90 RSK S380): −28.41%
  Avg(S6 Ribo Prot S235 236): −18.54%
  Avg(S6 Ribo Prot S240 244): −12.55%
  Avg(Tuberin TSC2 Y1571): 3.8%
  Avg(p70 S6 Kinase S371 S394): 44.04%
  Avg(p70 S6 Kinase T389 T412): 0.56%
HT29
  Avg (4ebp1 T70): −2.89%
  Avg (Akt S473): −20.5%
  Avg (Akt): −17.84%
  Avg (Bad S136): 5.53%
  Avg (Bad S155): −11.26%
  Avg (Bak): 2.69%
  Avg (Bax): −18.47%
  Avg (Bcl 2): −16.73%
  Avg (Bcl2 S70): −12.55%
  Avg (Bcl 2 T56): −25.01%
  Avg (Bim): 3.12%
  Avg (CREB S133): 14.16%
  Avg (Caspase 3 CL D175): −2.86%
  Avg (Caspase 7 Cl D198): 8.28%
  Avg (Chk1): 4.68%
  Avg (Chk1 S345): 6.44%
  Avg (Cyclin D1): −35.2%
  Avg (ERK 1 2): 0.24%
  Avg (ERK 1 2 T202 Y204): 435.68%
  Avg (MAK1 S360): 5.64%
  Avg (Mcl1): 1.36%
  Avg (Raptor S792): −2.13%
  Avg (Raptor): −6.53%
  Avg (Rictor): −2.6%
  Avg (Stat1): 4.29%
  Avg (Stat3): −4.28%
  Avg (bad S112): −35.62%
  Avg (c Fos): −8.23%
  Avg (c Myc): 10.71%
  Avg (mTOR S2448): −13.94%
  Avg (mTOR S2481): 0.52%
  Avg (mTOR): 16.94%
  Avg (p70 S6 Kinase): −1.72%
  Avg (p90 RSK S380): −43.41%
  Avg(S6 Ribo Prot S235 236): −32.8%
  Avg(S6 Ribo Prot S240 244): −24.35%
  Avg(Tuberin TSC2 Y1571): 2.85%
  Avg(p70 S6 Kinase S371 S394): −22.86%
  Avg(p70 S6 Kinase T389 T412): −12.31%
